From patent publication US20110250273A1, “COMPOSITIONS OF PROTON PUMP INHIBITORS, KITS AND METHODS OF THEIR USE TO TREAT DIABETES” (Melford Scientific, LLC, priority 2008, published 2011)
Marks after values point to notes of the source that are not given here.

Experiments:
Type in all cases: in vivo, human
[1] = test system: Type II diabetic patients; experiment: Population comparison of HgbA1c in treated diabetic patients with or without a PPI (Examples 1-3); settings: Example 2; 53 Metformin only patients, 11 Metformin plus proton pump inhibitor
Protocol: For a population of 347 Type II diabetic patients with recent HgbA1c measurements of an average 7.53% with a standard deviation of +/−1.77%. All were treated using insulin injections and/or a variety of oral agents, such as the above noted metformin, and other anti-diabetic medicines. The patients were treated for differing periods of time ranging from 3 months to 30 years.
The two groups were compared using a two-Sample T test that is a classical statistical test. […] The difference between the two groups was 0.61%, which is a significant difference with a p-value of 0.002.
64 total patients, of which 53 patients that were treated using only Metformin for the treatment of diabetes and 11 took Metformin and a proton pump inhibitor.
In this population, 79 patients were dosed with a sulfonylurea, either alone or in combination with metformin and/or pioglitazone or rosiglitazone. These 79 patients were not provided with insulin or sitagliptin.

[2] = test system: Type II diabetic patients; experiment: 2 hour glucose tolerance test during 24 week omeprazole trial (Example 4); settings: for C-Peptide 1 hour / C-Peptide 2 hours / Glucose 1 hour / Glucose 2 hours / Insulin 1 hour / Insulin 2 hours: after 75 g glucose
Protocol: (§1) Seven Type II diabetic patients were administered omeprazole for 24 weeks and data was obtained from fasting and following a 2 hour glucose tolerance test at 8 week intervals and compared to baseline values. Statistical comparisons and analysis were performed with a commercial program, Analyse-it, version 2.20.
(§2) Subjects: Five males, 2 females, age range 42-68 years, mean age 54+10 years. BMI's ranged from 31 to 49, mean 38+6. All subjects had co-morbid hypertension, four had co-morbid dyslipidemia and two had co-morbid hypothyroidism. All were stable on oral diabetes medications with 7/7 on metformin, 6/7 on pioglitazone (Actos), 4/7 on a DPP-4 inhibitor, sitagliptan (Januvia) and 4/7 on a Sulfonylurea. All subjects received a physical exam, review of systems and a baseline EKG prior to initiating the PPI trial. Subjects were then seen and evaluated at monthly intervals interviewed for adverse events and monitored for medication compliance and maintenance of daily blood glucose logs.
(§3) Design: All subjects continued on their respective oral antidiabetic medications throughout the study. Baseline data was obtained in a fasting state after an overnight fast. Subjects were then administered 75 g of glucose and blood samples obtained at 1 and 2 hours. Following collection of baseline data, subjects were administered Omeprazole Delayed-Release Capsules USP, (Apotex Inc., Toronto, Canada M9L 179), 40 mg orally twice daily and blood samples again obtained after 8, and 16 weeks. Medications were not taken on the mornings of testing. Following the 16 week sample collection, subjects were increased to 80 mg Omeprazole twice daily and blood samples again obtained at 24 weeks.
(§4) Measurements: Helicobacter Pylori IgG was obtained on each subject as a baseline as were Hemoglobin A1c and fasting Gastrin. Each 2 hour glucose tolerance test provided fasting glucose, insulin and c-peptide as well as 1 hour and 2 hour glucose and stimulated insulin and c-peptide. All measurements were obtained through a commercial laboratory using standardized analytical methods, Quest Diagnostics Laboratory, 5850 Rogerdale Road, Houston, Tex. 77072.

[3] = test system: Type II diabetic patients; experiment: Tolerability / adverse events in 24 week omeprazole trial (Example 4); settings: all doses (40 mg and 80 mg twice daily), 24 weeks
Text: as §2, §3

[4] = test system: Type II diabetic patients; experiment: Hemoglobin A1c, Beta cell area and plasma gastrin during 24 week omeprazole trial (Example 4); settings: for Beta Cell Area, %: calculated using the 2 hour glucose tolerance value by the method of Meier et al
Protocol: as §1, §2, §3, §4
Table 2 summarizes the effects of PPI administration on plasma Gastrin, Hemoglobin A1c and % Beta Cell area (calculated using the 2 hour glucose tolerance value by the method of Meier et al, Diabetes, vol 58, 1595-1603, 2009). […] Hemoglobin A1c, a measure of average blood glucose, was reduced by approximately 0.9% in this cohort, consistent with improved diabetes control (FIG. 5). Finally, the calculated Beta cell mass increased across the treatment period by approximately 25%.

[5] = 8 weeks PPI, Omeprazole 40 mg orally twice daily
[6] = 16 weeks PPI, Omeprazole 40 mg orally twice daily
[7] = 24 weeks PPI, increased to 80 mg Omeprazole twice daily after week 16

CN(C)C(=N)N=C(N)N [Metformin]
Average HgbA1c [1]: 7.27%

COc1ccc2[nH]c([S+]([O-])Cc3ncc(C)c(OC)c3C)nc2c1 (centres unmarked) [Omeprazole, 5-methoxy-2-[(4-methoxy-3,5-dimethyl-2-pyridinyl)methyl]sulfinyl-1H-benzimidazole]
C-Peptide Fasting [2, 5]: 4.0 | Glucose Fasting [2, 5]: 127 | Insulin Fasting [2, 5]: 13.6 | C-Peptide 1 hour [2, 5]: 7.1 | C-Peptide 2 hours [2, 5]: 8.6*** | Glucose 1 hour [2, 5]: 235# | Glucose 2 hours [2, 5]: 226 | Insulin 1 hour [2, 5]: 38.7 | Insulin 2 hours [2, 5]: 29.9 | C-Peptide Fasting [2, 6]: 3.4 | Glucose Fasting [2, 6]: 136 | Insulin Fasting [2, 6]: 12 | C-Peptide 1 hour [2, 6]: 6.0 | C-Peptide 2 hours [2, 6]: 7.9# | Glucose 1 hour [2, 6]: 206* | Glucose 2 hours [2, 6]: 229** | Insulin 1 hour [2, 6]: 24.7 | Insulin 2 hours [2, 6]: 36.1 | C-Peptide Fasting [2, 7]: 3.6 | Glucose Fasting [2, 7]: 147 | Insulin Fasting [2, 7]: 10.9 | C-Peptide 1 hour [2, 7]: 5.8 | C-Peptide 2 hours [2, 7]: 7.9+ | Glucose 1 hour [2, 7]: 251 | Glucose 2 hours [2, 7]: 258 | Insulin 1 hour [2, 7]: 25 | Insulin 2 hours [2, 7]: 34 | 1 and 2 hour c-peptide secretion ([2]; after PPI administration): increased | Fasting insulin levels ([2]; after PPI administration): unchanged | Stimulated insulin secretion ([2]; at both 1 and 2 hours, after PPI administration): increased | Maximum glucose excursion versus baseline ([2]; at both 1 and 2 hours, 8 and 16 weeks, statistically significant at 16 weeks): reduced | Fasting blood glucose versus baseline ([2]; at both 8 and 16 weeks): reduced | Adverse events [3]: no reports of adverse events | Tolerability [3]: well tolerated | Percent hemoglobin A1c reduction from baseline ([4]; 8, 16 and 24 weeks after taking PPI, FIG. 5): at least 0.6% | Hemoglobin A1c, % [4, 5]: 7.7% | Plasma Gastrin [4, 5]: 207 pg/mL | Beta Cell Area, % ([4]; 8 weeks PPI): 0.46% | Hemoglobin A1c, % [4, 6]: 7.8% | Plasma Gastrin [4, 6]: 174 pg/mL | Beta Cell Area, % ([4]; 16 weeks PPI): 0.51% | Beta Cell Area, % ([4]; 24 weeks PPI): 0.40% | Hemoglobin A1c, % [4, 7]: 7.9% | Plasma Gastrin [4, 7]: 232 pg/mL | Calculated Beta cell mass increase ([4]; across the treatment period): approximately 25% | Change in percent hemoglobin A1c ([4]; all patients, statistically significant, FIG. 1): decrease | Hemoglobin A1c reduction ([4]; in this cohort of seven patients, versus baseline): approximately 0.9% | Plasma gastrin versus baseline ([4]; long term PPI administration, serum levels gradually reduced over time): markedly elevated | Slope of linear best fit of hemoglobin A1c ([4]; seven type II diabetics, 24 week trial, FIG. 1): −0.021 % (HgbA1c) per week
